pIC50, pKi: −log10 of the molar value. Each block holds one compound with its values, some of them ahead of it. Active and inactive are the calls of the source. The rule behind the calls is not given here.
What was measured:
[1] = target: T1, 6-phosphogluconate dehydrogenase, decarboxylating (Homo sapiens) (UniProt P52209); assay: Inhibition of 6PGD in human A38-5 cells assessed as increase in intracellular H3K9me3 expression level at 1 to 250 uM incubated for 72 hrs by western blot analysis; type: cell-based; details: dose 1-250 µM
T1 sequence (whole entry): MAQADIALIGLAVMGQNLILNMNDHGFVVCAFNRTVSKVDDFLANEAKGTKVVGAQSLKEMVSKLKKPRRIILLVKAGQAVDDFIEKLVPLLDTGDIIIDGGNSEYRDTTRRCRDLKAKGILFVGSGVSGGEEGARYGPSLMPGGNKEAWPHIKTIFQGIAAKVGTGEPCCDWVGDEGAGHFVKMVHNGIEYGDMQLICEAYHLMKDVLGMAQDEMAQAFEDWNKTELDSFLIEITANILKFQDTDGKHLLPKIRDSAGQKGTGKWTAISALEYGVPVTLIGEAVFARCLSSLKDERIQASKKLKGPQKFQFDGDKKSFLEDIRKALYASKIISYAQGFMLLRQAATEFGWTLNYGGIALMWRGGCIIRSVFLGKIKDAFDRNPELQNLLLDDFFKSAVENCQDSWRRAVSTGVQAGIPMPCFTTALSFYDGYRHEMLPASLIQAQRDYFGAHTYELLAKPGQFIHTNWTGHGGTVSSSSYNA

[2] = Neurotoxicity against Sprague-Dawley rat Primary hippocampal neuron assessed as increase in TUNEL positive cells at 50 uM incubated for 24 hrs by TUNEL staining based microscopy; type: toxicity, cell-based; details: hippocampal neurone
[3] = target: T1, 6-phosphogluconate dehydrogenase, decarboxylating (Homo sapiens); assay: Inhibition of 6PGD in human A38-5 cells assessed as fold increase in 6PG level at 15.6 uM incubated for 72 hrs by mass spectrometry; type: cell-based
[4] = Neurotoxicity against Sprague-Dawley rat Primary hippocampal neuron assessed as increase in TUNEL positive cells at 5 uM incubated for 24 hrs by TUNEL staining based microscopy; type: toxicity, cell-based; details: hippocampal neurone
[5] = target: T1, 6-phosphogluconate dehydrogenase, decarboxylating (Homo sapiens); assay: Inhibition of 6PGD in human A38-5 cells assessed as increase in Ru-5-P level at 15.6 uM incubated for 72 hrs by mass spectrometry; type: cell-based
[6] = target: T1, 6-phosphogluconate dehydrogenase, decarboxylating (Homo sapiens); assay: Inhibition of 6PGD in human A38-5 cells assessed as increase in intracellular H3K9me3 level at 0.1 to 1000 uM incubated for 45 mins by HTRF assay; type: cell-based; details: dose 0.1-1000 µM
[7] = target: T1, 6-phosphogluconate dehydrogenase, decarboxylating (Homo sapiens); assay: Inhibition of 6PGD in human A38-5 cells assessed as increase in intracellular H3K9me3 level at 1 uM incubated for 45 mins by HTRF assay; type: cell-based
A38-5 = assay: Cytotoxicity against human A38-5 cells assessed as reduction in cell viability at 0.06 to 250 uM incubated for 72 hrs by CellTiter-Glo assay relative to 6AN; type: functional, cell-based; details: dose 0.06-250 µM
[8] = target: Glucose-6-phosphate 1-dehydrogenase (Homo sapiens) (UniProt P11413); assay: Inhibition of G6PD in human A38-5 cells assessed as fold increase in G6P level at 15.6 uM incubated for 72 hrs by mass spectrometry; type: cell-based
[9] = target: Glucose-6-phosphate 1-dehydrogenase (Rattus norvegicus, UniProt P05370); assay: Inhibition of rat G6PD by spectrophotometric method
[10] = target: T2, 6-phosphogluconate dehydrogenase, decarboxylating (Rattus norvegicus, UniProt P85968); assay: Inhibition of rat 6PGD by spectrophotometric method
T2 sequence (P85968 whole entry): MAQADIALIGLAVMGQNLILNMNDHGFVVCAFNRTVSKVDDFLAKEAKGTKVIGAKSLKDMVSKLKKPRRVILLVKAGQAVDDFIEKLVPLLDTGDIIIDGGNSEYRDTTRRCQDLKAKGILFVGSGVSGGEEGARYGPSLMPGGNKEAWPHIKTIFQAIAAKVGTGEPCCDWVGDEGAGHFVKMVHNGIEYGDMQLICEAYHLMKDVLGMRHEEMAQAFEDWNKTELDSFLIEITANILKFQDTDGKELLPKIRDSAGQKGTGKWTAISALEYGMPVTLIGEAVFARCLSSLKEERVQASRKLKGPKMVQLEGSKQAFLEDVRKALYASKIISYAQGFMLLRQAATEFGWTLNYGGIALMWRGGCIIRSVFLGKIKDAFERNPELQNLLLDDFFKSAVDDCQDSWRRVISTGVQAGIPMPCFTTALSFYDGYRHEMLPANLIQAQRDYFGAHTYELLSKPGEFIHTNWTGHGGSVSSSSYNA

[11] = target: T2, 6-phosphogluconate dehydrogenase, decarboxylating; assay: Inhibition of rat 6PGD assessed as inhibition constant by spectrophotometric method
Glutathione reductase = target: T3, Glutathione reductase (Rattus norvegicus, UniProt P70619); assay: Inhibition of rat glutathione reductase by spectrophotometric method
T3 sequence (P70619 whole entry): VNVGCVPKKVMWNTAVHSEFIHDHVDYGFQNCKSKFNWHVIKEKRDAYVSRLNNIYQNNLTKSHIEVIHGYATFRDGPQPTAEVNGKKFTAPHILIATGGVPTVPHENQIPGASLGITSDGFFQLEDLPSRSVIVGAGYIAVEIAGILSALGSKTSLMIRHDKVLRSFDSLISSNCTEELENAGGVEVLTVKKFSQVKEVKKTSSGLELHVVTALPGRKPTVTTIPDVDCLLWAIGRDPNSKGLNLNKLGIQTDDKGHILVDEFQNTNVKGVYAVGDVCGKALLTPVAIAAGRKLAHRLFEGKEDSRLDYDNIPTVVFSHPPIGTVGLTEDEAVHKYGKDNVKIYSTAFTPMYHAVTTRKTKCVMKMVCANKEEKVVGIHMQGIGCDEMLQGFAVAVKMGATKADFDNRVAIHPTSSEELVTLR

[12] = target: T1, 6-phosphogluconate dehydrogenase, decarboxylating (Homo sapiens); assay: Inhibition of 6PGD in human A38-5 cells assessed as fold increase in 6PG level at 250 uM incubated for 72 hrs by mass spectrometry; type: cell-based
[13] = target: Glucose-6-phosphate 1-dehydrogenase (Homo sapiens) (UniProt P11413); assay: Inhibition of G6PD in human A38-5 cells assessed as fold increase in G6P level at 250 uM incubated for 72 hrs by mass spectrometry; type: cell-based
[14] = target: T1, 6-phosphogluconate dehydrogenase, decarboxylating (Homo sapiens); assay: Inhibition of 6PGD in human A38-5 cells assessed as increase in Ru-5-P level at 250 uM incubated for 72 hrs by mass spectrometry; type: cell-based
[15] = target: T1, 6-phosphogluconate dehydrogenase, decarboxylating (Homo sapiens); assay: Inhibition of 6PGD in human A38-5 cells assessed as fold increase in intracellular H3K9me3 level at 250 uM incubated for 45 mins by HTRF assay; type: cell-based

Chain of Glucose-6-phosphate 1-dehydrogenase (Homo sapiens) (P11413 whole entry): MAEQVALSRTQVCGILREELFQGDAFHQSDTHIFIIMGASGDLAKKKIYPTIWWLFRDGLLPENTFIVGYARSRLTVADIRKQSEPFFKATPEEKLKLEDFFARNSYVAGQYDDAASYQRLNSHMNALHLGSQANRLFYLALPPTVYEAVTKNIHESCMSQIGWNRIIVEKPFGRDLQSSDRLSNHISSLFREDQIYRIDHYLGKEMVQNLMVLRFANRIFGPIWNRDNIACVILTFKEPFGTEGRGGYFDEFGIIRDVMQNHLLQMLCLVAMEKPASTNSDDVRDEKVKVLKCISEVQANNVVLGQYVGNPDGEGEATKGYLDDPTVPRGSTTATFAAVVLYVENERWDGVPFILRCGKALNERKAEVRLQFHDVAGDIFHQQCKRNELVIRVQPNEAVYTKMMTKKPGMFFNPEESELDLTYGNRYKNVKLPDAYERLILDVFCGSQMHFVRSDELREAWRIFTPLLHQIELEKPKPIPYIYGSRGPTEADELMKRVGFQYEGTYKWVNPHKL
Chain of Glucose-6-phosphate 1-dehydrogenase (P05370 whole entry): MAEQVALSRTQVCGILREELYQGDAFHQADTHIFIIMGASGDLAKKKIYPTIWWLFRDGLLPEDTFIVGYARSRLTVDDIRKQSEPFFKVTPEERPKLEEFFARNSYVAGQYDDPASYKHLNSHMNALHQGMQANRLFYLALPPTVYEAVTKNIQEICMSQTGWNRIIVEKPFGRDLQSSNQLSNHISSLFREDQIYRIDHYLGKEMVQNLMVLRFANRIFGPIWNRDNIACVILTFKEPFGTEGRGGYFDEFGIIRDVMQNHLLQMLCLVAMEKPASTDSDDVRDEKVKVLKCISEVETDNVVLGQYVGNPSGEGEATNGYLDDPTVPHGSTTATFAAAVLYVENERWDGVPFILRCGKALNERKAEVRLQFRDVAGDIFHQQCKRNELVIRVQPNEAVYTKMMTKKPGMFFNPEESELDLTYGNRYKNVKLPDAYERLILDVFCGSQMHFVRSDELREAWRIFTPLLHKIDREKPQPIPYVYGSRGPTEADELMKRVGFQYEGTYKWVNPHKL

Compound: CC(OC(=O)OC1CCCCC1)OC(=O)c1ccc(N)nc1 (stereo not given)
- inhibition [1]: Active
- Activity [2]: Non-Toxic
- fold change (FC) [3]: 150
- Activity [4]: Non-Toxic
- inhibition [5]: Active
- activity outcome (qualitative) ([6]; DDE = dose-dependent effect): Dde
- inhibition [7]: Active
- Activity (A38-5): Active
- fold change (FC) [8]: 2

Compound: NC(=O)c1ccc(N)[n+]([C@@H]2O[C@H](COP(=O)(O)OP(=O)(O)OC[C@H]3O[C@@H](n4cnc5c(N)ncnc54)[C@H](OP(=O)(O)O)[C@@H]3O)[C@@H](O)[C@H]2O)c1
- pIC50 [9]: 4.15
- pIC50 [10]: 6.70
- pKi [11]: 7.00
- pIC50 (Glutathione reductase): 4.34

Compound: NC(=O)c1ccc(N)nc1 [6-AMINONICOTINAMIDE]
- fold change (FC) [12]: 150
- fold change (FC) [13]: 2
- Activity [2]: Toxic
- Activity [4]: Toxic
- activity outcome (qualitative) ([6]; DDE = dose-dependent effect): Dde
- inhibition [14]: Active
- fold change (FC) [15]: 2.5

Compound: CCOC(=O)OC(C)OC(=O)c1ccc(N)nc1 (stereo not given)
- activity outcome (qualitative) ([6]; DDE = dose-dependent effect): Dde

Further lines, results first:

- activity outcome (qualitative) ([6]; DDE = dose-dependent effect): Dde
Compound: CCOC(=O)OCOC(=O)c1ccc(N)nc1

- activity outcome (qualitative) [6]: Active
Compound: CC(C)C(=O)OCOC(=O)c1ccc(N)nc1

- activity outcome (qualitative) [6]: Active
Compound: CC(=O)OCOC(=O)c1ccc(N)nc1

- activity outcome (qualitative) [6]: Active
Compound: CCCC(=O)OCOC(=O)c1ccc(N)nc1
